The CheMixHub viscosity set

Assay: xn = mol fraction of the nth substance listed

CN1CCCN(C)C1=O + CCCCCCn1cc[n+](C)c1.[Cl-]
100 kPa
Details	viscosity [mPa·s]
298.15 K, x2 = 0.3083	45.85
308.15 K, x2 = 0.3981	63.85

CCCCOC(C)=O + CCCCCO
viscosity [mPa·s], 101 kPa
Details	x1 = 0.0963	x1 = 0.2032	x1 = 0.2987	x1 = 0.4058	x1 = 0.4868	x1 = 0.5981	x1 = 0.7048	x1 = 0.7976	x1 = 0.8954
298.15 K	2.974	2.512	2.15	1.797	1.561	1.284	1.059	0.907	0.769
303.15 K	2.593	2.191	1.886	1.573	1.37	1.14	0.963	0.846	0.723
308.15 K	2.287	1.933	1.669	1.396	1.223	1.025	0.875	0.776	0.678
313.15 K	2.018	1.714	1.483	1.261	1.107	0.941	0.809	0.717	0.639

CCCN + CCCCCO
viscosity [mPa·s], 101.33 kPa
Details	x1 = 0.0915	x1 = 0.1847	x1 = 0.3069	x1 = 0.4139	x1 = 0.4894	x1 = 0.581	x1 = 0.7163	x1 = 0.8117	x1 = 0.9
303.15 K	2.504	2.167	1.755	1.431	1.224	0.9914	0.7168	0.5615	0.4508
313.15 K	2.066	1.79	1.437	1.176	1.003	0.8193	0.6111	0.488	0.3958

CCOC(=O)c1ccc(O)cc1 + CCCCCOC(C)=O
Details	viscosity [mPa·s]
298.15 K, 101 kPa, x1 = 0.5	1.66

Oc1ccccc1Cl + CCCCCOC(C)=O
Details	viscosity [mPa·s]
298.15 K, 101 kPa, x1 = 0.5	1.202

CCCN + CCCCN(CCCC)CCCC
303.15 K, 101 kPa
Details	viscosity [mPa·s]
x2 = 0.2025	0.5088
x2 = 0.4055	0.6949
x2 = 0.4953	0.7795
x2 = 0.603	0.8793
x2 = 0.7931	1.04

Oc1ccccc1Cl + CCCCN(CCCC)CCCC
298.16 K, 101 kPa
Details	viscosity [mPa·s]
x1 = 0.5022	21.91
x1 = 0.5499	34.61
x1 = 0.6012	82.36
x1 = 0.6516	192.6
x1 = 0.7025	410.1
x1 = 0.7266	475.5
x1 = 0.7554	427.4
x1 = 0.7826	289.1
x1 = 0.8001	191.3
x1 = 0.812	134.4
x1 = 0.8523	63.53
x1 = 0.8708	39.93
x1 = 0.8974	19.56
x1 = 0.9113	9.963
x1 = 0.9432	4.507
x1 = 0.9687	2.537
x2 = 0.004631	2.323
